Where a name gives a salt, the structure may show the parent alone.

The test system of experiment [1] is rear paw which has received the carrageenin. In words: Anti-inflammatory activity: carrageenin-induced rear paw swelling, oral administration. The format is in vivo, rats (male SPF, strain OFA). Particulars: for inhibition in vivo at 16 mg/kg / inhibition in vivo at 64 mg/kg / inhibition in vivo at 128 mg/kg / inhibition in vivo at 256 mg/kg / inhibition in vivo at 4 mg/kg: Rattus norvegicus, read-out: % of inhibition (reduction of swelling); for inhibition in vivo at 16 mg/kg: 16 mg/kg oral administration; for inhibition in vivo at 128 mg/kg: 128 mg/kg oral administration; for inhibition in vivo at 256 mg/kg: 256 mg/kg oral administration; for inhibition in vivo at 4 mg/kg: 4 mg/kg oral administration. The protocol:
Batches of 12 male SPF rats, strain OFA, weighing 120-130 g each, are given the product to be tested by oral administration 2 hours before and 30 minutes before (1/2 dose each time) subcutaneous plantar injection of 0.05 cm^3 of a 1% solution of carrageenin. The volume of the rear paw which has received the carrageenin is measured at regular intervals.
(In the carrageenan paw model, swelling and tenderness develop within hours.)

The test system of experiment [2] is pain reactions (abdominal contortions). As to the kind of experiment: Analgesic activity: phenylbenzoquinone-induced pain reactions, oral administration. The format is in vivo, mice (male, SPF1, strain OF1). To be noted: Mus musculus; for inhibition in vivo at 8 mg/kg: 8 mg/kg oral administration; for inhibition in vivo at 16 mg/kg: 16 mg/kg oral administration; for inhibition in vivo at 32 mg/kg: 32 mg/kg oral administration; for inhibition in vivo at 64 mg/kg: 64 mg/kg oral administration; for inhibition in vivo at 4 mg/kg: 4 mg/kg oral administration; for inhibition in vivo at 256 mg/kg: 256 mg/kg oral administration. The protocol: Batches of 6 male mice (SPF1, strain OF1), weighing 19-20 g each are given the product to be tested, by oral administration. One hour afterwards, each mouse is injected intraperitoneally with 0.3 cm^3 of an 0.02% strength phenylbenzoquinone solution and from the 5th to the 10th minute after this latter treatment, the number of pain reactions (abdominal contortions) is counted. The table which follows gives the percentage inhibition of these reactions.

As for `CCC1Cc2cc(C(C)C(=O)O)sc2C1` (stereo not shown) [23 & 27], in experiment [1], the inhibition in vivo at 16 mg/kg was determined as 30%, the inhibition in vivo at 128 mg/kg is 66% and the inhibition in vivo at 256 mg/kg was 56%. Further, the inhibition in vivo at 64 mg/kg in experiment [1] (64 mg/kg oral administration) was found to be 67%. In experiment [2], the inhibition in vivo at 8 mg/kg turned out to be 7%, the inhibition in vivo at 16 mg/kg turned out to be 35%, the inhibition in vivo at 32 mg/kg worked out at 79% and the inhibition in vivo at 64 mg/kg was determined as 98%.
Turning to `CC(C(=O)O)c1cc2c(s1)CC(C(C)C)C2` (stereo not shown) [24 & 28], in experiment [1], the inhibition in vivo at 4 mg/kg stood at 0%, the inhibition in vivo at 16 mg/kg turned out to be 32%, the inhibition in vivo at 128 mg/kg turned out to be 59% and the inhibition in vivo at 256 mg/kg stood at 46%. In experiment [1] (64 mg/kg oral administration), the inhibition in vivo at 64 mg/kg was determined as 63%. In experiment [2], this molecule displayed an inhibition in vivo at 4 mg/kg of 0%, an inhibition in vivo at 8 mg/kg of 35%, an inhibition in vivo at 16 mg/kg of 66% and an inhibition in vivo at 32 mg/kg of 89%. This molecule also registered an inhibition in vivo at 64 mg/kg in experiment [2] of 96%.
Regarding `CCC1Cc2cc(CC(=O)O)sc2C1` (stereo not shown) [Example 17, (5-Ethyl-4,5-dihydro-6H-cyclopenta[b]thienyl-2)-acetic acid], in experiment [1], the inhibition in vivo at 4 mg/kg came out at 17%, the inhibition in vivo at 16 mg/kg stood at 24%, the inhibition in vivo at 128 mg/kg came out at 52% and the inhibition in vivo at 256 mg/kg came out at 66%. In experiment [1] (64 mg/kg oral administration), the inhibition in vivo at 64 mg/kg stood at 55%. In experiment [2], this molecule yielded an inhibition in vivo at 16 mg/kg of 17%, an inhibition in vivo at 32 mg/kg of 58% and an inhibition in vivo at 64 mg/kg of 63%.
Turning to `CC(C)C1Cc2cc(CC(=O)O)sc2C1` (stereo not shown) [Example 18, (5-Isopropyl-4,5-dihydro-6H-cyclopenta[b]thienyl-2)-acetic acid], in experiment [1], the inhibition in vivo at 4 mg/kg is 0%, the inhibition in vivo at 16 mg/kg stood at 0%, the inhibition in vivo at 128 mg/kg is 47% and the inhibition in vivo at 256 mg/kg was 57%. Besides, the inhibition in vivo at 64 mg/kg in experiment [1] (64 mg/kg oral administration) worked out at 31%. In experiment [2], this molecule yielded an inhibition in vivo at 16 mg/kg of 4%, an inhibition in vivo at 32 mg/kg of 27% and an inhibition in vivo at 64 mg/kg of 61%.
In the case of `CCC1Cc2cc(C(C)C(=O)OCCN3CCOCC3)sc2C1` (stereo not drawn) [Example 30, Hydrochloride of the morpholinoethyl ester of α-methyl(5-ethyl-4,5-dihydro-6H-cyclopenta[b]thienyl-2)-acetic acid], in experiment [1], the inhibition in vivo at 4 mg/kg is 18%, the inhibition in vivo at 16 mg/kg came out at 38%, the inhibition in vivo at 128 mg/kg is 67% and the inhibition in vivo at 256 mg/kg was 79%. For the same molecule, the inhibition in vivo at 64 mg/kg in experiment [1] (64 mg/kg oral administration) came to 53%. For the same molecule, in experiment [2], the inhibition in vivo at 8 mg/kg came out at 9%, the inhibition in vivo at 16 mg/kg came to 6%, the inhibition in vivo at 32 mg/kg came to 85% and the inhibition in vivo at 64 mg/kg is 93%.
For the molecule `CCC1Cc2cc(CC(=O)OCCN3CCOCC3)sc2C1` (stereo not shown) [Example 32, Hydrochloride of the morpholinoethyl ester of (5-ethyl-4.5-dihydro-6H-cyclopenta[b]thienyl-2)-acetic acid], in experiment [1], the inhibition in vivo at 4 mg/kg came to 0%, the inhibition in vivo at 16 mg/kg stood at 16%, the inhibition in vivo at 128 mg/kg turned out to be 51% and the inhibition in vivo at 256 mg/kg was 53%. Also, in experiment [1] (64 mg/kg oral administration), the inhibition in vivo at 64 mg/kg was found to be 20%. For the same molecule, in experiment [2], the inhibition in vivo at 16 mg/kg came to 25%, the inhibition in vivo at 32 mg/kg came to 48% and the inhibition in vivo at 64 mg/kg amounted to 53%.
As for `CCC1Cc2cc(CC(=O)OCCN(C)C)sc2C1` (stereo not shown) [Example 33, Hydrochloride of the dimethylaminoethyl ester of (5-ethyl-4,5-dihydro-6H-cyclopenta[b]thienyl-2)-acetic acid], in experiment [1], the inhibition in vivo at 4 mg/kg worked out at 2%, the inhibition in vivo at 16 mg/kg was found to be 17%, the inhibition in vivo at 128 mg/kg was found to be 54% and the inhibition in vivo at 256 mg/kg turned out to be 52%. The inhibition in vivo at 64 mg/kg in experiment [1] (64 mg/kg oral administration) is 55%. In experiment [2], this molecule had an inhibition in vivo at 16 mg/kg of 37%, an inhibition in vivo at 64 mg/kg of 17% and an inhibition in vivo at 256 mg/kg of 95%.
Consider `CCC1Cc2cc(C(C)C(=O)OCCN(C)C)sc2C1` (stereo not drawn) [Example 34, Hydrochloride of the dimethylaminoethyl ester of α-methyl-(5-ethyl-4,5-dihydro-6H-cyclopenta[b]thienyl-2)-acetic acid], for which, in experiment [1], the inhibition in vivo at 4 mg/kg was found to be 3%, the inhibition in vivo at 16 mg/kg turned out to be 12%, the inhibition in vivo at 128 mg/kg came to 64% and the inhibition in vivo at 256 mg/kg was determined as 82%. The inhibition in vivo at 64 mg/kg in experiment [1] (64 mg/kg oral administration) was 45%. Also, in experiment [2], the inhibition in vivo at 4 mg/kg was determined as 21%, the inhibition in vivo at 8 mg/kg turned out to be 46%, the inhibition in vivo at 16 mg/kg came out at 74% and the inhibition in vivo at 32 mg/kg is 95%.
Regarding `CC(C(=O)OCCN1CCOCC1)c1cc2c(s1)CC(C(C)C)C2` (stereo not drawn) [Example 36, Hydrochloride of the morpholinoethyl ester of α-methyl-(5-isopropyl-4,5-dihydro-6H-cyclopenta[b]thienyl-2)-acetic acid], in experiment [1], the inhibition in vivo at 4 mg/kg was 29%, the inhibition in vivo at 16 mg/kg came to 30%, the inhibition in vivo at 128 mg/kg was 56% and the inhibition in vivo at 256 mg/kg was found to be 66%. Also, the inhibition in vivo at 64 mg/kg in experiment [1] (64 mg/kg oral administration) was 62%. In experiment [2], this molecule yielded an inhibition in vivo at 8 mg/kg of 23%, an inhibition in vivo at 16 mg/kg of 80% and an inhibition in vivo at 32 mg/kg of 84%.
On to `CC(C(=O)OCCN(C)C)c1cc2c(s1)CC(C(C)C)C2` (stereo not shown) [Example 37], for which, in experiment [1] (64 mg/kg oral administration), the “% of inhibition (reduction of swelling)” value worked out at 45Z. Further, in experiment [1], the inhibition in vivo at 4 mg/kg was determined as 5%, the inhibition in vivo at 16 mg/kg amounted to 35%, the inhibition in vivo at 128 mg/kg stood at 63% and the inhibition in vivo at 256 mg/kg was determined as 58%. In experiment [2], this molecule came in with an inhibition in vivo at 4 mg/kg of 10%, an inhibition in vivo at 8 mg/kg of 53%, an inhibition in vivo at 16 mg/kg of 42% and an inhibition in vivo at 32 mg/kg of 80%.
With `CC(C)C1Cc2cc(CC(=O)OCCN3CCOCC3)sc2C1` (stereo not shown) [Example 39, Hydrochloride of the morpholinoethyl ester of (5-isopropyl-4,5-dihydro-6H-cyclopenta[b]thienyl-2)-acetic acid], in experiment [1], the inhibition in vivo at 4 mg/kg was found to be 7%, the inhibition in vivo at 16 mg/kg is 23%, the inhibition in vivo at 128 mg/kg was found to be 53% and the inhibition in vivo at 256 mg/kg came to 56%. In addition, the inhibition in vivo at 64 mg/kg in experiment [1] (64 mg/kg oral administration) was 20%. Further, in experiment [2], the inhibition in vivo at 64 mg/kg amounted to 12% and the inhibition in vivo at 256 mg/kg is 53%.
Consider `CC(C)C1Cc2cc(CC(=O)OCCN(C)C)sc2C1` (stereo not shown) [Example 40, Hydrochloride of the dimethylaminoethyl ester of (5-isopropyl-4,5-dihydro-6H-cyclopenta[b]thienyl-2)-acetic acid], for which, in experiment [1], the inhibition in vivo at 4 mg/kg turned out to be 8%, the inhibition in vivo at 16 mg/kg came to 7%, the inhibition in vivo at 128 mg/kg turned out to be 22% and the inhibition in vivo at 256 mg/kg was determined as 32%. The inhibition in vivo at 64 mg/kg in experiment [1] (64 mg/kg oral administration) was found to be 13%. In experiment [2], the inhibition in vivo at 16 mg/kg came to 0%, the inhibition in vivo at 64 mg/kg is 31% and the inhibition in vivo at 256 mg/kg stood at 88%.

These data come from patent publication US4156000A, “Cyclopenta[b]thiophene derivatives” (Hexachimie, priority 1976, dated 1979).
